The values below come from PubChem BioAssay (NCI).

Several values for one entry are separate records, joined by “and”; a condition that tells them apart may be missing. Equal values may be shown once.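 All cell lines were grown in 96-well plates and treated with compound for 48 hours. GI50: concentration for 50% inhibition of growth. TGI: concentration producing complete growth inhibition.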 Bounds are passed on as bounds.

Among the test systems are HCT-116 colon; EKVX NSCLC; ACHN renal; SNB-19 CNS; MDA-MB-231 breast; CAKI-1 renal; RPMI-8226 leukemia; M14 melanoma; RXF 393 renal; NCI/ADR-RES ovarian.
Common to all, as to test: growth of human tumour cells (NCI), 48 h

As to `CCCCCCCCCC[C@H](O)[C@H]1CC[C@@H]([C@@H](O)CC[C@H](O)[C@@H]2CCC(CCCCCCC[C@@H](O)CC3=C[C@H](C)OC3=O)O2)O1` (stereo partly drawn), the GI50 in the experiment on HCT-116 colon was 0.507 µM; with EKVX NSCLC, 5.17 µM; in the experiment with ACHN renal it was 2.15 µM; in the experiment with CAKI-1 renal, 5.26 µM; in the experiment with M14 melanoma, 2.73 µM; in the experiment with NCI/ADR-RES ovarian, 2.63 µM. The TGI was 2.65 µM and 20.7 µM with HCT-116 colon; 6.86 µM and 22.4 µM in the experiment on EKVX NSCLC; 4.47 µM and 15.7 µM in the experiment on ACHN renal; 4.71 µM and 19.6 µM with SNB-19 CNS; 7.03 µM and 44.2 µM with MDA-MB-231 breast; 23.8 µM in the experiment on CAKI-1 renal. The TGI with RPMI-8226 leukemia was 4.03 µM; in the experiment with M14 melanoma, 2.93 µM and 9.75 µM; in the experiment with RXF 393 renal it was 19.8 µM; in the experiment with NCI/ADR-RES ovarian, 4.08 µM and 19.6 µM.

`CO/C(=C1/NC(=O)C(Cc2ccc(O)c(Br)c2)N(C)C(=O)C(C)NC(=O)CCC/C=C(\C)CCC(C)OC1=O)c1ccccc1` (stereo not drawn): the GI50 is below 0.0146 µM in the experiment with HCT-116 colon; 0.0425 µM in the experiment on EKVX NSCLC; 0.0192 µM with ACHN renal; 0.031 µM in the experiment with SNB-19 CNS; 0.0348 µM in the experiment with MDA-MB-231 breast; 0.0196 µM in the experiment on CAKI-1 renal. Also, the GI50 is below 0.0155 µM in the experiment with RPMI-8226 leukemia, below 0.0205 µM with M14 melanoma, 0.0347 µM in the experiment with RXF 393 renal and 0.0566 µM in the experiment with NCI/ADR-RES ovarian. Further, the TGI in the experiment on ACHN renal came to 0.0623 µM; in the experiment on SNB-19 CNS, 1.96 µM; with MDA-MB-231 breast it was 6.58 µM; in the experiment with CAKI-1 renal it was 0.0509 µM; in the experiment with RPMI-8226 leukemia it was 0.0607 µM; with RXF 393 renal, 16.2 µM. In the experiment with NCI/ADR-RES ovarian, this compound had a TGI of 18.1 µM.

`CC1(C)C(CC(=O)O)CCCC1CC(=O)O` (stereo not drawn): the TGI with HCT-116 colon, in the experiment on EKVX NSCLC, in the experiment on ACHN renal, with SNB-19 CNS, in the experiment with MDA-MB-231 breast and in the experiment on CAKI-1 renal was above 100 µM each time. Besides, the TGI in the experiment with RPMI-8226 leukemia, in the experiment on M14 melanoma, with RXF 393 renal and with NCI/ADR-RES ovarian was above 100 µM throughout.

For `Cc1[nH]nc(C(=O)N/N=C/c2ccccc2Cl)c1N=NN(C)C`, the TGI in the experiment with HCT-116 colon, in the experiment with EKVX NSCLC, with ACHN renal, in the experiment on SNB-19 CNS, in the experiment with MDA-MB-231 breast and with CAKI-1 renal was above 100 µM in each case. In addition, the TGI in the experiment on RPMI-8226 leukemia was above 100 µM; in the experiment on M14 melanoma it was above 100 µM; in the experiment with RXF 393 renal it was above 100 µM; in the experiment with NCI/ADR-RES ovarian, above 27.7 µM.

For `CCc1ncc(CO)n1Cc1cccc2ccccc12`, the TGI in the experiment on HCT-116 colon, in the experiment on EKVX NSCLC, in the experiment on ACHN renal, in the experiment on SNB-19 CNS, in the experiment with MDA-MB-231 breast and with CAKI-1 renal was above 100 µM in each case. Moreover, the TGI in the experiment with RPMI-8226 leukemia, in the experiment on M14 melanoma, in the experiment on RXF 393 renal and with NCI/ADR-RES ovarian was above 100 µM in each case.

As for `Nc1n[nH]c2ccc([C@@H]3Nc4ccc5cn[nH]c5c4[C@H]4C5CCC(C5)[C@@H]34)cc12` (stereo partly drawn), the GI50 with HCT-116 colon was 0.442 µM; in the experiment with EKVX NSCLC, 0.554 µM; in the experiment with ACHN renal, 0.797 µM; in the experiment with SNB-19 CNS it was 0.601 µM; with MDA-MB-231 breast, 0.874 µM; in the experiment on CAKI-1 renal, 0.347 µM. Moreover, the GI50 was 0.346 µM with RPMI-8226 leukemia, 0.317 µM in the experiment on M14 melanoma, 0.236 µM in the experiment with RXF 393 renal and 0.887 µM in the experiment on NCI/ADR-RES ovarian. Also, the TGI was above 100 µM with HCT-116 colon; above 100 µM with EKVX NSCLC; above 91.9 µM in the experiment with ACHN renal; above 100 µM in the experiment with SNB-19 CNS; above 53.4 µM in the experiment on MDA-MB-231 breast; above 48.8 µM in the experiment with CAKI-1 renal. Further, the TGI in the experiment on RPMI-8226 leukemia is 11.1 µM; in the experiment on M14 melanoma, above 100 µM; in the experiment on RXF 393 renal it was 0.724 µM; in the experiment with NCI/ADR-RES ovarian, above 24.1 µM.

For `CC(=O)ON=C1C=CC(=C(C#N)c2ccccc2)C=C1`, the GI50 in the experiment with HCT-116 colon was 0.283 µM; in the experiment on EKVX NSCLC it was 6.96 µM; in the experiment with ACHN renal it was 0.772 µM; with SNB-19 CNS, 11.5 µM; in the experiment on MDA-MB-231 breast it was 2.63 µM; with CAKI-1 renal, 0.396 µM. For the same compound, the GI50 was 0.428 µM with RPMI-8226 leukemia, 1.89 µM in the experiment with M14 melanoma, 2.68 µM with RXF 393 renal and 0.768 µM in the experiment on NCI/ADR-RES ovarian. Further, the TGI in the experiment on HCT-116 colon was 11.5 µM; in the experiment with EKVX NSCLC, 42.4 µM; in the experiment on ACHN renal it was 14.2 µM; in the experiment with SNB-19 CNS it was above 57.5 µM; with MDA-MB-231 breast, above 28.5 µM; with CAKI-1 renal, 2.71 µM. In addition, the TGI in the experiment on RPMI-8226 leukemia came out at 2.94 µM; in the experiment with M14 melanoma, 9.9 µM; in the experiment on RXF 393 renal, 11.5 µM; in the experiment on NCI/ADR-RES ovarian, 4.21 µM.

Regarding `CCN(CC)CC(O)c1cc(-c2ccc(Cl)cc2)nc2c(C)c(Cl)ccc12` (stereo not drawn), the GI50 is 1.66 µM in the experiment with HCT-116 colon; 1.46 µM with EKVX NSCLC; 1.63 µM with ACHN renal; 1.86 µM in the experiment with SNB-19 CNS; 1.47 µM in the experiment with MDA-MB-231 breast; 1.29 µM with CAKI-1 renal. The GI50 is 2.41 µM in the experiment on RPMI-8226 leukemia, 1.91 µM in the experiment with M14 melanoma, 1.71 µM in the experiment on RXF 393 renal and 1.71 µM in the experiment with NCI/ADR-RES ovarian. In addition, the TGI with HCT-116 colon is 3.18 µM; in the experiment with EKVX NSCLC it was 2.9 µM; with ACHN renal, 3.03 µM; in the experiment on SNB-19 CNS it was 3.44 µM; in the experiment on MDA-MB-231 breast it was 3.03 µM; with CAKI-1 renal, 2.69 µM. The TGI with RPMI-8226 leukemia came to 5.71 µM; with M14 melanoma, 3.48 µM; in the experiment with RXF 393 renal it was 3.14 µM; in the experiment on NCI/ADR-RES ovarian it was 3.16 µM.

For the compound `NC(=O)c1csc(-c2ccc(CO)o2)n1`, the TGI with HCT-116 colon, with EKVX NSCLC, with ACHN renal, with SNB-19 CNS, in the experiment with MDA-MB-231 breast and with CAKI-1 renal was above 100 µM in each case. For the same compound, the TGI in the experiment on RPMI-8226 leukemia, in the experiment on M14 melanoma, with RXF 393 renal and in the experiment on NCI/ADR-RES ovarian was above 100 µM throughout.
